From patent US20030148991A1, “Combination of lipoic acid and c1 donors for the treatment of disorders of the central nervous system” (priority 2000, published 2003)

Legend:
whole brain membranes = assay: Measurement of membrane fluidity (DPH fluorescence anisotropy); design: species or system NMRI mice; details: whole brain membranes from old (22 months) mice; 1, 10, 100 μmol/l and 1 mmol/l; 37° C.; FIGS. 1 and 2
Description: The fluidity of whole brain membranes (without cerebellum, medella oblongata and brain stem) from young (3 months) and old (22 months) NMRI mice was determined by fluorescence spectroscopy.
Mouse whole brain membranes were prepared by a modification of the method of Cohnen and Müller, 1993. The deep-frozen hemispheres were, after weighing, transferred into 15 ml of ice-cold buffer IV (Tris-HCl buffer 5 mmol/l; pH 7.4), homogenized using a homogenizer (Potter, glass homogenizer with Teflon pestle, from Braun) at about 1 100 rpm by moving the Teflon pestle up and down about ten times, and transferred into centrifuged tubes (PP30 ml, from Schubert). […]
Membrane fluidity can be measured inter alia by fluorescence spectroscopic methods. In fluorescence polarization spectroscopy, a membrane-bound fluorescent dye is brought to an excited energy state by polarized light of a particular wavelength. […] Membrane fluidity is therefore also indicated as fluorescence anisotropy besides the fluorescence polarization. The anisotropy is in this case calculated from the measured polarization.
The fluorescent dye diphenylhexatriene (DPH) was used for this purpose. […] This process is measured as anisotropy. […]

brain cells = assay: Measurement of the production of free radicals (DHR 123 fluorescence); format: cell-based; details: 100 and 500 μmol/l, time-dependent, compared with control, FIGS. 3 and 4
Description: Oxidative stress or the production of free radicals was measured using the fluorescence dye dihydrorhodamine (DHR 123). Brain cells were enriched by incubation with DHR 123 in a waterbath at 37° C. for 15 minutes. DHR is then located in particualr in the mitochondria and fluoresces after oxidation by free radicals. Fluorescence was measured at an excitation wavelength of 500 nm and an emission wavelength of 536 nm. The generation of free radicals was then measured in the absence (control) and presence of lipoic acid at various concentrations (100 and 500 μmol/l).

Structure (SMILES): O=C(O)CCCCC1CCSS1 (centres unmarked) [lipoic acid, 5-(1,2-dithiolan-3-yl)valeric acid]
- DPH anisotropy (membrane fluidity) (whole brain membranes): reduce the anisotropy in membranes from old mice
- generation of free radicals (increase in DHR 123 fluorescence) (brain cells): counteracts the generation of free radicals
